The text below walks through data of patent publication US9783505B2, “Substituted diaminopyrimidyl compounds, compositions thereof, and methods of treatment therewith” (Signal Pharmaceuticals, LLC, priority 2013, dated 2017).

The target of the assay is T1, His-PKC-theta (Homo sapiens, UniProt Q04759).
T1 construct: His; purchased Invitrogen
The assay is described as follows: PKC-theta Assay (384-well time resolved fluorescence, IMAP TR-FRET). The class given is biochemical. The following applies: read-out: Act. Level (IC50 in the PKC-theta Assay). The procedure: PKC-theta Assay. A 384-well time resolved fluorescence assay was used to monitor PKC-theta activity. The PKC-theta assay was run in the following assay buffer: 50 mM HEPES pH 7.6, 10 mM MgCl2, 1 mM DTT, 0.01% Triton X-100, 0.01% BSA and 0.1 mM EDTA. To initiate the reaction, 200 nM of Fam-labeled S6-derived peptide (Molecular Devices) and 10 μM of ATP were mixed with 142 pM of His-PKC-theta (Invitrogen) for a total assay volume of 25 μL in each well. The assay was incubated at room temperature for 2 hours and terminated using a 60 μL/well mixture of Detection Binding Solution: 70% IMAP Progressive Binding Buffer A, 30% IMAP Progressive Binding Buffer B, 1:600 Progressive Binding Reagent, and 1:400 TR-FRET Tb Donor (Molecular Devices). The assay plates were then incubated overnight at room temperature and read on a Perkin-Elmer Envision Reader.

Read-outs that look alike come from different tables or passages of the source.

T1 sequence (Q04759 whole entry): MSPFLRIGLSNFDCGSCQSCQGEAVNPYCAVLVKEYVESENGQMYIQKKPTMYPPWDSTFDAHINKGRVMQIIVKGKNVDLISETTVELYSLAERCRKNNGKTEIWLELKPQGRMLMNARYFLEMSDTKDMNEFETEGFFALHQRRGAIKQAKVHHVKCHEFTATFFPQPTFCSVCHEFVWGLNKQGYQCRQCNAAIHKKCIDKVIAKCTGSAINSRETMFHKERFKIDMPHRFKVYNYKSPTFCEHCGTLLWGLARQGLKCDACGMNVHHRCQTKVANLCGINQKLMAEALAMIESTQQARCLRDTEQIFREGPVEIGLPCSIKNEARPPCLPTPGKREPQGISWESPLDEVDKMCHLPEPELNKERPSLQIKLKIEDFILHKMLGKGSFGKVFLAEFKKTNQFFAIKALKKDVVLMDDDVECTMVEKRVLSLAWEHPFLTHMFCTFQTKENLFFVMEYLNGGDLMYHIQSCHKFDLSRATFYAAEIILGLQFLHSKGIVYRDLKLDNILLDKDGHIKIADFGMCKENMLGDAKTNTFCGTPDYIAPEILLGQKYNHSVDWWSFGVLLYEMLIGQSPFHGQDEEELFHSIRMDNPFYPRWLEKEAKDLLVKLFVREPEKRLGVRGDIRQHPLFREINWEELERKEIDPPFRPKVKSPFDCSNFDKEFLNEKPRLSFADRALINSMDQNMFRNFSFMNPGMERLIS

With `N#Cc1cnc(NCc2cncnc2C(F)(F)F)nc1N[C@H]1CC[C@@H](O)CC1` [Cmpd 96], the IC50 fell in the range of 100 to 800 nM.

As to `N#Cc1cnc(NCc2c(F)cccc2Cl)nc1N[C@H]1CC[C@@H](O)CC1` [Cmpd 16], where the note is “Table 2”, the IC50 is 100 to 800 nM.

In the case of `CC1(C)[C@@H](C(N)=O)C[C@H]1Nc1nc(NCCc2cccc(Cl)c2)ncc1C#N` [Cmpd 165], the concentration for half-maximal inhibition (IC50) (Table 2) is below 100 nM.

For `CC(F)(F)COc1cccc(CCNc2ncc(C#N)c(N[C@@H]3CC[C@H](O)C(C)(C)C3)n2)c1` [Cmpd 155], the IC50 (Table 2) is 100 to 800 nM.

Consider `CCOc1ncncc1CNc1ncc(C(F)(F)F)c(N[C@@H]2C[C@H](O)C2(C)C)n1` [Cmpd 57], for which the IC50 is below 100 nM.

Turning to `CC1(C)[C@@H](O)C[C@H]1Nc1nc(NCCc2ccc(CN3CCCC3=O)cc2)ncc1C#N` [Cmpd 123], the IC50 (Table 2) was 800 to 2000 nM.

For `CC1(C)[C@@H](O)C[C@H]1Nc1nc(NCCc2cccc(C(F)(F)F)c2)ncc1C#N` [Cmpd 45], the IC50 (Table 2) was in the range of 100 to 800 nM.

Turning to `CC1(C)[C@@H](O)C[C@H]1Nc1nc(NCCc2ccc(C(F)(F)F)cc2)ncc1C#N` [Cmpd 46], for the setting “Table 2”, the IC50 was 800 to 2000 nM.

For the compound `N#Cc1cnc(NCCc2c[nH]c3ccccc23)nc1N[C@H]1CC[C@@H](O)CC1` [Cmpd 154], the IC50 lay in the range of 100 to 800 nM.

Regarding `CC1(C)C[C@H](Nc2nc(NCc3c[n+]([O-])ccc3C(F)(F)F)ncc2C(F)(F)F)CC[C@@H]1O` [Cmpd 40], the IC50 is below 100 nM.

Consider `CC1(C)C[C@H](Nc2nc(NCCc3ccco3)ncc2C#N)CC[C@@H]1O` [Cmpd 196], for which the IC50 was in the range of 100 to 800 nM.

For `CC(C)c1ncncc1CNc1ncc(C#N)c(N[C@H]2CC[C@@](C)(O)CC2)n1` [Cmpd 56], the IC50 is below 100 nM.

As to `CNC(=O)c1cccc(CCNc2ncc(C#N)c(N[C@@H]3C[C@H](O)C3(C)C)n2)c1` [Cmpd 135], the IC50 (Table 2) was 800 to 2000 nM.

`CC1(C)C[C@H](Nc2nc(NCC(=O)c3ccc(F)cc3F)ncc2C#N)CC[C@@H]1O` [Cmpd 66]: where the note is “Table 2”, the IC50 is 100 to 800 nM.

Turning to `CC(F)(F)COc1ncncc1CNc1ncc(C#N)c(NC2C[C@@H](O)C2(C)C)n1` (some centres unmarked) [Cmpd 88], the IC50 is below 100 nM.

Regarding `CC1(C)[C@@H](CO)C[C@H]1Nc1nc(NCc2c[n+]([O-])ccc2C(F)(F)F)ncc1C#N` [Cmpd 53], the IC50 was below 100 nM.

For `N#Cc1cnc(NCc2cnccc2C(F)(F)F)nc1N[C@H]1CC[C@@H](O)CC1` [Cmpd 75], the IC50 is below 100 nM.

In the case of `CC(C)(CO)CNc1nc(NCc2cnccc2C(F)(F)F)ncc1C#N` [Cmpd 129], the IC50 is 100 to 800 nM.

Take `COc1cccc2c(CCNc3ncc(C#N)c(N[C@@H]4CC[C@H](O)C(C)(C)C4)n3)c[nH]c12` [Cmpd 177]: the IC50 fell in the range of 100 to 800 nM.

For `CC1(C)C[C@H](Nc2nc(NCCc3ccc(Cl)cc3)ncc2C#N)CC[C@@H]1O` [Cmpd 33], the IC50 (Table 2) is 100 to 800 nM.

As for `Cc1ccc(CCNc2ncc(C#N)c(N[C@@H]3CC[C@H](O)C(C)(C)C3)n2)cn1` [Cmpd 197], the IC50 lay within 800 to 2000 nM.

As to `CNC(=O)[C@H]1CC[C@@H](Nc2nc(NCc3cncnc3Oc3cccc(C)c3)ncc2C#N)CC1` [Cmpd 22], the IC50 is below 100 nM.

Regarding `CC1(C)[C@@H](O)C[C@H]1Nc1nc(NCCc2ccc(-c3ccccc3)cc2)ncc1C#N` [Cmpd 111], the IC50 (Table 2) was in the range of 100 to 800 nM.

Take `N#Cc1cnc(NCc2ccccc2)nc1N[C@H]1CC[C@@H](O)CC1` [Cmpd 28]: the IC50 (Table 2) fell in the range of 2000 to 10000 nM.

Consider `Cc1nc(CCNc2ncc(C#N)c(N[C@@H]3CC[C@H](O)C(C)(C)C3)n2)no1` [Cmpd 195], for which the IC50 fell in the range of 2000 to 10000 nM.

On to `COc1cccc2[nH]cc(CCNc3ncc(C#N)c(N[C@@H]4CC[C@H](O)C(C)(C)C4)n3)c12` [Cmpd 175], for which the IC50 was 100 to 800 nM.

For the compound `Cc1ccccc1CNc1ncc(C#N)c(N[C@H]2CC[C@@H](O)CC2)n1` [Cmpd 19], the IC50 (Table 2) was in the range of 2000 to 10000 nM.

As to `CC1(C)C[C@H](Nc2nc(NCCc3ccc(Cl)c(Cl)c3)ncc2C#N)CC[C@@H]1O` [Cmpd 101], the IC50 (Table 2) was 100 to 800 nM.

Take `COc1ccc(CCNc2ncc(C#N)c(N[C@@H]3CC[C@H](O)C(C)(C)C3)n2)cc1OC` [Cmpd 36]: where the note is “Table 2”, the IC50 fell in the range of 100 to 800 nM.

With `CC1(C)C[C@H](Nc2nc(NCCc3ccc(S(=O)(=O)N4CCC4)cc3)ncc2C#N)CC[C@@H]1O` [Cmpd 176], the IC50 (Table 2) lay in the range of 100 to 800 nM.

In the case of `CC1(C)C[C@H](Nc2nc(NCCc3cccc(S(C)(=O)=O)c3)ncc2C#N)CC[C@@H]1O` [Cmpd 173], the IC50 (Table 2) lay within 100 to 800 nM.

Turning to `CC1(C)[C@H](N)C[C@H]1Nc1nc(NCCc2cccc(Cl)c2)ncc1C#N` [Cmpd 158], the IC50 (Table 2) fell in the range of 800 to 2000 nM.

Turning to `CC1(C)[C@@H](O)C[C@H]1Nc1nc(NCCc2ccccc2O)ncc1C#N` [Cmpd 108], the IC50 (Table 2) was in the range of 800 to 2000 nM.

For the compound `Cc1cc(C(F)(F)F)c(CNc2ncc(C(F)(F)F)c(N[C@@H]3CC[C@H](O)C(C)(C)C3)n2)c[n+]1[O-]` [Cmpd 55], the IC50 is below 100 nM.

Regarding `Cc1cc(C(F)(F)F)c(CNc2ncc(C#N)c(N[C@H]3CC[C@@](C)(O)CC3)n2)c[n+]1[O-]` [Cmpd 146], the half-maximal inhibitory concentration (IC50) was in the range of 800 to 2000 nM.

Turning to `Cc1[nH]c2ccccc2c1CCNc1ncc(C#N)c(N[C@@H]2CC[C@H](O)C(C)(C)C2)n1` [Cmpd 168], the IC50 lay within 100 to 800 nM.

Regarding `C[C@H](CNc1ncc(C#N)c(N[C@@H]2C[C@H](O)C2(C)C)n1)c1ccccc1` [Cmpd 42], the IC50 (Table 2) lay in the range of 100 to 800 nM.

Take `N#Cc1cnc(NCCc2ccc(F)cc2)nc1N[C@H]1CC[C@@H](C(N)=O)CC1` [Cmpd 91]: the IC50 (Table 2) fell in the range of 100 to 800 nM.

Regarding `Cc1ccnn1CCNc1ncc(C#N)c(N[C@@H]2CC[C@H](O)C(C)(C)C2)n1` [Cmpd 193], the IC50 lay within 2000 to 10000 nM.

With `CC1(C)C[C@H](Nc2nc(NCCc3c[nH]c4cc(Cl)ccc34)ncc2C#N)CC[C@@H]1O` [Cmpd 173], the IC50 lay within 100 to 800 nM.

In the case of `CC1(C)[C@@H](O)C[C@H]1Nc1nc(NCCc2cccc3cccnc23)ncc1C#N` [Cmpd 190], the IC50 lay within 2000 to 10000 nM.

Regarding `CC(F)(F)COc1ncncc1CNc1ncc(C#N)c(N[C@H]2C[C@@H](O)C2(C)C)n1` [Cmpd 99], the IC50 lay within 100 to 800 nM.

With `N#Cc1cnc(NCc2cnccc2C(F)(F)F)nc1NC12CC3CC(CC(O)(C3)C1)C2` [Cmpd 124], the IC50 was 800 to 2000 nM.

As to `CC1(C)C[C@H](Nc2nc(NCCc3ccc(S(C)(=O)=O)cc3)ncc2C#N)CC[C@@H]1O` [Cmpd 63], for the setting “Table 2”, the IC50 is 100 to 800 nM.

`N#Cc1cnc(NCCC2C(=O)Nc3ccccc32)nc1N[C@H]1CC[C@@H](O)CC1` (some centres unmarked) [Cmpd 155]: the IC50 was in the range of 100 to 800 nM.

In the case of `CC1(C)[C@@H](O)C[C@H]1Nc1nc(NCCc2ccc(O)cc2)ncc1C#N` [Cmpd 84], where the note is “Table 2”, the IC50 fell in the range of 100 to 800 nM.

As to `COC1CC(Nc2nc(NCc3cnccc3C(F)(F)F)ncc2C(F)(F)F)C1(C)C` (centres unmarked) [Cmpd 74], the IC50 was below 100 nM.

For `C[C@@H]1CC[C@@H](Nc2nc(NCc3cncnc3OCC(C)(F)F)ncc2C#N)C[C@H]1O` [Cmpd 157], the IC50 is 100 to 800 nM.

As for `CC(C)Oc1ccccc1CNc1ncc(C#N)c(N[C@H]2CC[C@@H](O)CC2)n1` [Cmpd 5], the IC50 (Table 2) was in the range of 100 to 800 nM.

For `CC1(C)[C@@H](O)C[C@H]1Nc1nc(NCc2cnccc2C(F)(F)F)ncc1C(F)(F)F` [Cmpd 24], the IC50 is below 100 nM.

For the compound `CC1(C)C[C@H](Nc2nc(NCCc3ccc(S(=O)(=O)N4CCOCC4)cc3)ncc2C#N)CC[C@@H]1O` [Cmpd 177], the IC50 (Table 2) was 100 to 800 nM.

Regarding `CC(C)(O)CNc1nc(NCc2cnccc2C(F)(F)F)ncc1C#N` [Cmpd 6], the IC50 (Table 2) fell in the range of 100 to 800 nM.

`CC(F)(F)c1ncncc1CNc1ncc(C#N)c(N[C@@H]2CC[C@H](O)C(C)(C)C2)n1` [Cmpd 36]: the IC50 is below 100 nM.

As for `CC1(C)[C@@H](O)C[C@H]1Nc1nc(NCc2cncnc2-c2ccc(F)cc2)ncc1C#N` [Cmpd 79], the IC50 was below 100 nM.

With `C[C@]1(O)CC[C@@H](Nc2nc(NCc3cncnc3C(F)(F)F)ncc2C#N)CC1` [Cmpd 106], the IC50 was in the range of 100 to 800 nM.

As to `Cc1nnnn1-c1ccccc1CNc1ncc(C(F)(F)F)c(NC2CCC(O)C(C)(C)C2)n1` (centres unmarked) [Cmpd 2], the IC50 (Table 2) is below 100 nM.

As to `CC1(C)[C@H](O)C[C@H]1Nc1nc(NCc2cnccc2C(F)(F)F)ncc1C(F)(F)F` [Cmpd 33], the IC50 is below 100 nM.

For the compound `N#Cc1cnc(NCCc2ccc(-n3ccnc3)c(F)c2)nc1N[C@H]1CC[C@@H](C(N)=O)CC1` [Cmpd 195], the IC50 (Table 2) is below 100 nM.

Consider `Cc1ccc(Oc2ncncc2CNc2ncc(C(F)(F)F)c(N[C@H]3CC[C@@H](O)CC3)n2)cc1` [Cmpd 19], for which the half-maximal inhibitory concentration (IC50) was below 100 nM.

With `CC1(C)C[C@H](Nc2nc(NCC(=O)c3ccc(Cl)cc3)ncc2C#N)CC[C@@H]1O` [Cmpd 81], the IC50 (Table 2) was in the range of 100 to 800 nM.

In the case of `CC1(C)[C@H](CO)C[C@@H]1Nc1nc(NCc2cnccc2C(F)(F)F)ncc1C(F)(F)F` [Cmpd 91], the IC50 fell in the range of 100 to 800 nM.

For the compound `N#Cc1cnc(NCc2ccccc2Oc2ccc(F)cc2)nc1N[C@H]1CC[C@@H](O)CC1` [Cmpd 12], the IC50 (Table 2) lay within 800 to 2000 nM.

With `CC1(C)[C@@H](CO)C[C@H]1Nc1nc(NCc2cnccc2C(F)(F)F)ncc1C(F)(F)F` [Cmpd 32], the IC50 is below 100 nM.

Consider `CC1(C)C[C@H](Nc2nc(NCCc3ccccc3O)ncc2C#N)CC[C@@H]1O` [Cmpd 67], for which, where the note is “Table 2”, the IC50 is 100 to 800 nM.

As to `Cc1nnnn1-c1ccc(CCNc2ncc(C#N)c(N[C@@H]3CC[C@H](O)C(C)(C)C3)n2)cc1` [Cmpd 167], where the note is “Table 2”, the IC50 was 100 to 800 nM.

Consider `CC1(C)[C@@H](CO)C[C@@H]1Nc1nc(NCCc2cccc(Cl)c2)ncc1C#N` [Cmpd 77], for which the IC50 (Table 2) lay within 2000 to 10000 nM.

For `CN1CCN(c2ccccc2CNc2ncc(C#N)c(N[C@H]3CC[C@@H](O)CC3)n2)CC1` [Cmpd 27], under “Table 2”, the IC50 lay within 2000 to 10000 nM.

For `Cc1nnnn1-c1ccc(CCNc2ncc(C#N)c(N[C@@H]3CCC[C@@](C)(O)C3)n2)cc1` [Cmpd 191], the IC50 (Table 2) lay within 2000 to 10000 nM.
